What was measured:
LDLR−/− mice [1] = experiment: Reduction of plasma cholesterol and triglyceride levels in LDLR−/− mice fed an atherogenic diet; type: in vivo; conditions: 8 weeks
Protocol: (§1) Eight-week old male LDLR−/− mice on a C57BL/6 background (obtained from Jackson Laboratory) were fed an atherogenic diet (TD94059, Harlan TEKLAD, Madison, Wis.) for 8 weeks. During the same period, the mice received Compound 1 daily by gavage at a dose of 3 or 5 mg/kg in a microemulsion prepared by the method described in Gao et al., Int J Pharm 1998, 161:75-86). The control group (vehicle) received a microemulsion without Compound 1. After 8 weeks, the mice were fasted for 4 hours and anesthetized with ketamine (100 mg/kg) and xylazine (10 mg/kg). A blood sample was collected from the retro-orbital plexus of each mouse. 200 μl of plasma was fractionated on tandem Superose 6 fast protein liquid chromatography columns (Reardon et al., 2001). Cholesterol and triglyceride in the even-numbered fast protein liquid chromatography fractions and in plasma samples were measured using commercial kits (Stanbio Laboratory, Boerne, Tex.).

human LXRα or LXRβ = experiment: Luciferase-based reporter gene assay for LXR agonism; type: cell-based; conditions: HEK293 cells co-transfected with human LXRα or LXRβ, 48 hours
Protocol: The ability of Compound 1 to act as an LXR agonist was tested using a luciferase-based reporter gene assay according to the method described in Graham et al., Virology, 1973, 52:456. The assay is described below:
Wells of a 48-well plate were seeded with 50,000 human embryonic kidney (HEK293) cells in 0.25 mL of Dulbecco's modified Eagle's media containing 10% charcoal-stripped fetal bovine serum (DMEM+10% CS-FBS). HEK293 cells were co-transfected with various plasmid DNAs using a calcium phosphate co-precipitation method (Graham et al., Virology, 1973, 52:456). To each well was added 0.25 mL of a transfection mix (1.36 mL transfection components and 11.5 mL DMEM+10% CS-FBS) containing 60 ng of a firefly luciferase-based reporter plasmid, 60 ng of pSG5 containing human LXRα or LXRβ cDNA, 0.6 ng of the sea pansy luciferase normalization plasmid phRL-TK (Promega), and 220 ng of pBS/SK+II. […] Firefly and sea pansy luciferase activities in the lysate were measured using a dual luciferase assay (Promega) and a Monolight luminometer. […] Fold activation of the firefly luciferase reporter plasmid was calculated from normalized relative light units in the presence and absence of the test compound.

LDLR−/− mice [2] = experiment: Atherosclerotic lesion quantification in LDLR−/− mice fed an atherogenic diet; type: in vivo; conditions: 8 weeks
Protocol: as §1
The mice were then perfused transcardially with PBS and then paraformaldehyde. The hearts and upper vasculatures were removed and prepared for histology as described in Reardon et al., Arterioscler Thromb Vasc Biol 2001, 21:1011-1016.
Lesions in the innominate artery were quantified using 4 digitally captured oil red O-stained 10 μm sections, separated by 100 μm and located 150-450 μm distal to the branch point of the innominate artery from the aortic arch. Lesions in the ascending thoracic aorta were assessed from three sections separated by 100 μm and located 100-300 μm below the apex of the lesser curvature of the aortic arch. Aortic sinus lesions were evaluated from 3 sections, separated by 100 μm and beginning at the site of appearance of the coronary artery. OpenLab software version 3.1.5 was used in the quantification.

[3] = daily gavage 3 or 5 mg/kg, vs vehicle

CC(/C=C/C(O)(C(F)(F)F)C(F)(F)F)C1CCC2C3C[C@H](O)[C@@H]4C[C@H](O)CCC4(C)C3CCC12C (some centres unmarked) [Compound 1]
HDL cholesterol level (LDLR−/− mice [1]; 3 mg/kg daily gavage): not | VLDL cholesterol level (LDLR−/− mice [1]; 3 mg/kg daily gavage): reduced | triglyceride levels (LDLR−/− mice [1]; 3 mg/kg daily gavage): reduced | HDL cholesterol level (LDLR−/− mice [1]; 5 mg/kg daily gavage): not | LDL cholesterol level (LDLR−/− mice [1]; 5 mg/kg daily gavage): reduced | VLDL cholesterol level (LDLR−/− mice [1]; 5 mg/kg daily gavage): reduced | triglyceride levels (LDLR−/− mice [1]; 5 mg/kg daily gavage): reduced | cholesterol level in the blood (LDLR−/− mice [1]; [3]): marked decrease | triglyceride level in the blood (LDLR−/− mice [1]; [3]): marked decrease | LXR agonist activity (fold activation of firefly luciferase reporter) (human LXRα or LXRβ): very effective LXR agonist | mean atherosclerotic lesion area, aortic root (LDLR−/− mice [2]; 3 mg/kg/day): significantly reduced | atherosclerotic plaque size, ascending aorta arch (LDLR−/− mice [2]; 5 mg/kg/day): significantly reduced | atherosclerotic plaque size, innominate artery (LDLR−/− mice [2]; 5 mg/kg/day): significantly reduced | mean atherosclerotic lesion area, aortic root (LDLR−/− mice [2]; 5 mg/kg/day): significantly reduced

Reference: patent US8829213B2, “Liver X receptor agonists” (The University of Chicago, priority 2009, dated 2014)
